Here are results for 3 compounds from publication PMC4457528, “Identification of Novel Small Molecule Inhibitors of Oncogenic RET Kinase” (PLoS ONE, 2015).

Like-named read-outs stand apart in the source and are kept apart here.

Common to all, as to assay: KinomeScan kinase panel, single concentration 10 µM
Common to all, as to assay type: binding

For test [1], the target named is T1, KinomeScan kinase panel (Homo sapiens, UniProt O75385).
T1 construct: purchased DiscoveRx (KinomeScan)
T1 sequence (O75385 1-1050): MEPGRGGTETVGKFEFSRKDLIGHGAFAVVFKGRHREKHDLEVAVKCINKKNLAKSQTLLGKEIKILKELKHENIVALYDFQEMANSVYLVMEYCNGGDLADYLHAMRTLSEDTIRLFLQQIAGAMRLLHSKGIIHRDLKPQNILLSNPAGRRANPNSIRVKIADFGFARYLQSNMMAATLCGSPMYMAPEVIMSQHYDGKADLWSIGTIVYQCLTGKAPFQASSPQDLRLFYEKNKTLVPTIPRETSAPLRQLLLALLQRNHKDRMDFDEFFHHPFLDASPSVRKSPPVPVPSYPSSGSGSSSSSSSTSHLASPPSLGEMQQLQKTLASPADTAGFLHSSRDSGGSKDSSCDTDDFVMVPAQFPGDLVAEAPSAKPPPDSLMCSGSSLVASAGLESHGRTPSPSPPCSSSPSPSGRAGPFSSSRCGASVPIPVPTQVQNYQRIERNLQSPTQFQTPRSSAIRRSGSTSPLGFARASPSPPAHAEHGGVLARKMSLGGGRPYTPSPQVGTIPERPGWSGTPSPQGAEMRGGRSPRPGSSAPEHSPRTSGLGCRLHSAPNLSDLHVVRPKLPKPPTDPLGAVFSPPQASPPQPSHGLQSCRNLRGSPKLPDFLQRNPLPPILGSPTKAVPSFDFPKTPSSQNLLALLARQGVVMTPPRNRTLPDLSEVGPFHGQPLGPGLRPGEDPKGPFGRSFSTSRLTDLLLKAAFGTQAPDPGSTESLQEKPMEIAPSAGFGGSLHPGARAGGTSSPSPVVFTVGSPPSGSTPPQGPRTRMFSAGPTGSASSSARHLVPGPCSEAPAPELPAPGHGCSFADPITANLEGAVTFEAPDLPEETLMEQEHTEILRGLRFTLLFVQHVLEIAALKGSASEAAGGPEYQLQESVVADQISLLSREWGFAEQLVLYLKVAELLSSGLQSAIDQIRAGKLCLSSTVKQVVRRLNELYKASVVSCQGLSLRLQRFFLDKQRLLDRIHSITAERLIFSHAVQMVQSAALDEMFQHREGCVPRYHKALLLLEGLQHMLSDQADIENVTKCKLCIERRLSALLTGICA
The following applies: kinase ULK1; 10 µM.

The target of test [2] is T2, KinomeScan kinase panel (Homo sapiens, UniProt Q02763).
T2 construct: purchased DiscoveRx (KinomeScan)
T2 sequence (Q02763 23-1124): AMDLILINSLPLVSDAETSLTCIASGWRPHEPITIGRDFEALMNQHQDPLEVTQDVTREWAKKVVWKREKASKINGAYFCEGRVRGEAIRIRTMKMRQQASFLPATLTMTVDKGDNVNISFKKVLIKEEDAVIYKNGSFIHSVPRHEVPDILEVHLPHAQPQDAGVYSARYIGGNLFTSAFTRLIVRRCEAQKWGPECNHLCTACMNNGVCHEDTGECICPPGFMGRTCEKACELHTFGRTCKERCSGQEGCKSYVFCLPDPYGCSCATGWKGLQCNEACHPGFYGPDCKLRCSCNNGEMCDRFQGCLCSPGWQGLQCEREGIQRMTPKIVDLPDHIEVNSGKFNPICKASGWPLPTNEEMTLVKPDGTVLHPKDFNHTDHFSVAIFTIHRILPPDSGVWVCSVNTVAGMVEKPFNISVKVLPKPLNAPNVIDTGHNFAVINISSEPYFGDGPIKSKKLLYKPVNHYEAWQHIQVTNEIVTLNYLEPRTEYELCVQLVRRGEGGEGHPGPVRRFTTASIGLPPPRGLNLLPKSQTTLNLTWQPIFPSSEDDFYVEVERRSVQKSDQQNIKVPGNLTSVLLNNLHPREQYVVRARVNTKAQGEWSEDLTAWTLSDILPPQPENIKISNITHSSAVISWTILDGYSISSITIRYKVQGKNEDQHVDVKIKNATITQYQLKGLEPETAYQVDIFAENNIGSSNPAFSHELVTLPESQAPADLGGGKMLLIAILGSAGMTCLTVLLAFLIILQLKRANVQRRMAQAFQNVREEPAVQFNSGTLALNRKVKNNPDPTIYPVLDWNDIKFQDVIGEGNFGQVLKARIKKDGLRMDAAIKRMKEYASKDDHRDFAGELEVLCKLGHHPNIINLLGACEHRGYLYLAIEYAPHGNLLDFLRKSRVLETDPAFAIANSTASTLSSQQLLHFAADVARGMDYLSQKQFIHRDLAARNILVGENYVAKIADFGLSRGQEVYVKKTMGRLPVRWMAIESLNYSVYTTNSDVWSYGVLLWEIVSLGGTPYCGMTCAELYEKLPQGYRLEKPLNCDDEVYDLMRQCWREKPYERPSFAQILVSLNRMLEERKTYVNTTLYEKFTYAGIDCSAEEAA
Particulars: read-out: score (%).

Test [3] has as its target T3, KinomeScan kinase panel (Homo sapiens, UniProt Q13043).
T3 construct: purchased DiscoveRx (KinomeScan)
T3 sequence (Q13043 1-487): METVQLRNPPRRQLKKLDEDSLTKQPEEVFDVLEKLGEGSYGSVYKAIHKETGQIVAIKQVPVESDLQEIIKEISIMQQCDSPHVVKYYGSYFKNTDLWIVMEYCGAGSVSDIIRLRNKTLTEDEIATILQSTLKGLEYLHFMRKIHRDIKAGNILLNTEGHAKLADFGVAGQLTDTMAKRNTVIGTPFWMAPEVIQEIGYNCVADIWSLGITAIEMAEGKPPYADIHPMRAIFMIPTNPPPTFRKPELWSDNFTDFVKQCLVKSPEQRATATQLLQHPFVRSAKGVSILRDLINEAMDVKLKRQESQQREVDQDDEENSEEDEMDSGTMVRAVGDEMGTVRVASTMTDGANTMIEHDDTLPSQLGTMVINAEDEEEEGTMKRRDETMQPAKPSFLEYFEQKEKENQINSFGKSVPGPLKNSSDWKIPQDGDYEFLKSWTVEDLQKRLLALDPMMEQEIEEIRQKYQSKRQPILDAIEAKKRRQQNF
Particulars: MST1, 10 µM.

Test [4] concerns the target T4, KinomeScan kinase panel (Homo sapiens, UniProt Q59H18).
T4 construct: purchased DiscoveRx (KinomeScan)
T4 sequence (Q59H18 1-835): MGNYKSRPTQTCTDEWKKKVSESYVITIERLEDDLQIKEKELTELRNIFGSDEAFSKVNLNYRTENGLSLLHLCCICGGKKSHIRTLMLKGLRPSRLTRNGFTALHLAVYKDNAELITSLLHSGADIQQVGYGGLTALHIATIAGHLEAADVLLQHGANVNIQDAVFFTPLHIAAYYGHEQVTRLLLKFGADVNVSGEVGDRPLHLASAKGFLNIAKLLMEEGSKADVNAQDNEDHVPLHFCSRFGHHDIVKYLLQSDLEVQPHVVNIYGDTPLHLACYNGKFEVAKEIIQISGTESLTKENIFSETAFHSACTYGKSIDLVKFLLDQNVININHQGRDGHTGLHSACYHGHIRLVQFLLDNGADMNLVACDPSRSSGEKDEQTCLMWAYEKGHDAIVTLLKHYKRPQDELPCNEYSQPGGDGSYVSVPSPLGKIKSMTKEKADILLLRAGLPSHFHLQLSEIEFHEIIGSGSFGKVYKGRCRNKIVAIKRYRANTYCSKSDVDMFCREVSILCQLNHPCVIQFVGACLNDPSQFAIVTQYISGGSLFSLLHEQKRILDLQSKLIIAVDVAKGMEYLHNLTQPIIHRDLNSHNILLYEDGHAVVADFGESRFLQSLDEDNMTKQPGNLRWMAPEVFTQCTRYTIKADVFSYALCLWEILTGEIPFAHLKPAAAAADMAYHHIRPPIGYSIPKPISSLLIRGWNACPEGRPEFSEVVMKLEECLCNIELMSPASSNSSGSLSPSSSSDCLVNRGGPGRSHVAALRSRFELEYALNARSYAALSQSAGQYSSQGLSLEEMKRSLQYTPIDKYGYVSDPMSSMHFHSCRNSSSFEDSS
The following applies: 10 µM, read-out: score (%).

For test [5], the target named is T5, KinomeScan kinase panel (Homo sapiens, UniProt Q5VT25).
T5 construct: purchased DiscoveRx (KinomeScan)
T5 sequence (Q5VT25 whole entry): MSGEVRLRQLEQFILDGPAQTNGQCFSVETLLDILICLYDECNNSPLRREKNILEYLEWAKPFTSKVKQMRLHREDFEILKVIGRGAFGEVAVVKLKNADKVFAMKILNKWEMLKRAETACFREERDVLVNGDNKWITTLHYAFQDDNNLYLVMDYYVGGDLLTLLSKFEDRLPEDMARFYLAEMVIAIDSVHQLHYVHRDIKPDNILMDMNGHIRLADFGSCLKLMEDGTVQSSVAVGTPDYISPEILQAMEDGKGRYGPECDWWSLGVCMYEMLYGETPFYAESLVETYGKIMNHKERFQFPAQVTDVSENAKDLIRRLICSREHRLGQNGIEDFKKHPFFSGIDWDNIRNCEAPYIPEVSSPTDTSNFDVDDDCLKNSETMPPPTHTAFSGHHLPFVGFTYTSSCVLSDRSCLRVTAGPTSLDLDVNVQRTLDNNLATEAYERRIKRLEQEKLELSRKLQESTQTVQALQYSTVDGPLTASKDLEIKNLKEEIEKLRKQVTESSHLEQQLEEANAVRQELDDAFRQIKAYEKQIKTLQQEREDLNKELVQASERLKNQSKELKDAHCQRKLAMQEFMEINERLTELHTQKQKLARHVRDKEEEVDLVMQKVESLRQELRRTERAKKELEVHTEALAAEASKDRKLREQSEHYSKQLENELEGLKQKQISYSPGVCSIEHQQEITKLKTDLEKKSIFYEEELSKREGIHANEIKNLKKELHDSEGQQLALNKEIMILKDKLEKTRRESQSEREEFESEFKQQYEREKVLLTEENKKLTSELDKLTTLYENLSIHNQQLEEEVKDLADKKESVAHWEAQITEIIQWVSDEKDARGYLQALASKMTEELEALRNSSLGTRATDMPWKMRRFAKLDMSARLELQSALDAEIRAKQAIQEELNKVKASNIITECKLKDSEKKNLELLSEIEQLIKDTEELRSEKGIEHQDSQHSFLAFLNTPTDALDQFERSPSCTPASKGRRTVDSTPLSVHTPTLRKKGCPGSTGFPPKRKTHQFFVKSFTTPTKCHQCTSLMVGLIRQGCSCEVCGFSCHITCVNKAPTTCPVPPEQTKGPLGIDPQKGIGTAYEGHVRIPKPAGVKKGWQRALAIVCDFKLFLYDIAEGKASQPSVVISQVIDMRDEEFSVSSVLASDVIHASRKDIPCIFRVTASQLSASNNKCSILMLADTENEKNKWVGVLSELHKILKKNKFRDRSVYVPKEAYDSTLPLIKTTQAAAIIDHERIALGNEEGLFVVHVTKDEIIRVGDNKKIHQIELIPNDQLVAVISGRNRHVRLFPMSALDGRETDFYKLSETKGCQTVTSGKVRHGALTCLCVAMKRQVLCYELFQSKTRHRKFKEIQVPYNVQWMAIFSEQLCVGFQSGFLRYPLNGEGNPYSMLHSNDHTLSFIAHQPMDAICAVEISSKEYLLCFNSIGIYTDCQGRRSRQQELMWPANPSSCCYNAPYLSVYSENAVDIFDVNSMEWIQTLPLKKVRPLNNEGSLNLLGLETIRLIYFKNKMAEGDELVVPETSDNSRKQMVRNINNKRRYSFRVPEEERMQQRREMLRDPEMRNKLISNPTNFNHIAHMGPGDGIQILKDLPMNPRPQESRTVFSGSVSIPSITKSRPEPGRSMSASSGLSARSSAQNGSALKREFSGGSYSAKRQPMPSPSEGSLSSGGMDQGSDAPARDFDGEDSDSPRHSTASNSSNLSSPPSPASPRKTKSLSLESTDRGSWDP
The following applies: MRCKA, 10 µM; read-out: score (%).

Test [6] concerns the target T6, KinomeScan kinase panel (Homo sapiens, UniProt Q86YV6).
T6 construct: purchased DiscoveRx (KinomeScan)
T6 sequence (Q86YV6 1-388): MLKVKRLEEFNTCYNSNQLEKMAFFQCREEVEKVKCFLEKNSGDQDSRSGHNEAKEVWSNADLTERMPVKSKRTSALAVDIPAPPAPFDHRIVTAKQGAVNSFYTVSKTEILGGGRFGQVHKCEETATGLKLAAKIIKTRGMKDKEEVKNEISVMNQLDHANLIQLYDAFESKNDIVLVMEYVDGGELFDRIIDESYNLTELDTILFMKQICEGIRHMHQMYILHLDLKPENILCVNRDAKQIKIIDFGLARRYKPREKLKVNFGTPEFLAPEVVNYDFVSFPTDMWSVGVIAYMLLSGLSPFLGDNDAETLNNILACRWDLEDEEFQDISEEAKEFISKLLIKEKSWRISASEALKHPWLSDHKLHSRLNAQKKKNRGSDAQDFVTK
The following applies: read-out: score (%).

`CCN1CCN(Cc2ccc(NC(=O)c3ccc(C)c(NC(=O)c4cncc(-c5cccs5)c4)c3)cc2C(F)(F)F)CC1` [ALW-II-41-27]: the figures for the “score (%)” value in test [1] and in test [3] were “nb (Hits values higher than 30% were considered negative (no binding: nb))” and 21%, respectively. Also, the remaining binding at 10 µM is 0.45% in test [2] (kinase TIE2, 10 µM); 3.8% in test [4] (kinase TNNI3K); more than 30% in test [5]; more than 30% in test [6] (kinase SgK085, 10 µM).
Turning to `CCN1CCN(Cc2ccc(NC(=O)c3ccc(C)c(/C=C/c4cnc5[nH]ccc5c4Cl)c3)cc2C(F)(F)F)CC1` [HG-6-63-01, (E)-3-(2-(4-chloro-1H-pyrrolo[2,3-b]pyridin-5-yl)vinyl)-N-(4-((4-ethylpiperazin-1-yl)methyl)-3-(trifluoromethyl)phenyl)-4-methylbenzamide], the “score (%)” value in test [1] is 8.7%; in test [3] it was 26%. Besides, the remaining binding at 10 µM in test [2] (TIE2, 10 µM) was found to be 0.1%; in test [4] (TNNI3K), 0.9%; in test [5], 12%; in test [6] (SgK085, 10 µM), 8.5%.
Turning to `CCN1CCN(Cc2ccc(NC(=O)c3ccc(C)c(C#Cc4cccnc4)c3)cc2C(F)(F)F)CC1` [XMD15-44], the “score (%)” value in test [1] turned out to be 24%; in test [3], 23%. In addition, the remaining binding at 10 µM was 0.05% in test [2] (kinase TIE2, 10 µM); 0% in test [4] (kinase TNNI3K); more than 30% in test [5]; more than 30% in test [6] (MYLK4, 10 µM).
